Experimental data: ChEMBL document CHEMBL1201862, “PubChem BioAssay data set” (2004)
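Briefly, cells in 96-well plates were exposed to five compound concentrations for 48 h, and endpoints were estimated by linear interpolation. GI50: concentration for 50% inhibition of growth.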 Active and inactive are the calls of the source. Cut-off read from the data, not from the text of the source: active = GI50 up to about 1.1 µM and inactive = higher. Peptide text beside a SMILES is read from it. * marks the point of attachment. Boc = CC(C)(C)OC(=O)*; OtBu = CC(C)(C)O*

Columns and labels:
Assay in all cases: inhibition of tumour cell growth, NCI panel, 48 h
NCI-H522 = test system: NCI-H522
UACC-257 = test system: UACC-257
OVCAR-4 = test system: OVCAR-4
U-251 = test system: U-251
HCT-15 = test system: HCT-15
SNB-19 = test system: SNB-19
TK-10 = test system: TK-10
NCI/ADR-RES = test system: NCI/ADR-RES
RXF 393 = test system: RXF 393
OVCAR-3 = test system: OVCAR-3
786-0 = test system: 786-0
ACHN = test system: ACHN
MDA-N = test system: MDA-N
SW-620 = test system: SW-620
OVCAR-5 = test system: OVCAR-5
SN12C = test system: SN12C
MCF7 = test system: MCF7
BT-549 = test system: BT-549
Malme-3M = test system: Malme-3M
SR = test system: SR

| SMILES | GI50 (NCI-H522) | GI50 (UACC-257) | GI50 (OVCAR-4) | GI50 (U-251) | GI50 (HCT-15) [µM] | GI50 (SNB-19) | GI50 (TK-10) | GI50 (NCI/ADR-RES) | GI50 (RXF 393) | GI50 (OVCAR-3) | GI50 (786-0) | GI50 (ACHN) | GI50 (MDA-N) | GI50 (SW-620) | GI50 (OVCAR-5) | GI50 (SN12C) | GI50 (MCF7) | GI50 (BT-549) | GI50 (Malme-3M) | GI50 (SR) |
| --- | --- | --- | --- | --- | --- | --- | --- | --- | --- | --- | --- | --- | --- | --- | --- | --- | --- | --- | --- | --- |
| COc1cc2cc(C(=O)N3CC(COS(C)(=O)=O)c4c3cc([N+](=O)[O-])c3ccccc43)[nH]c2c(OC)c1OC (configuration not stated) | 2.99 µM (inactive) | > 31.6 µM (inactive) | > 31.6 µM (inactive) | > 31.6 µM (inactive) | > 31.6 | > 31.6 µM (inactive) | > 31.6 µM (inactive) | 0.698 µM (active) | 18.3 µM (inactive) | > 31.6 µM (inactive) | 0.752 µM (active) | 0.547 µM (active) | 19.5 µM (inactive) | 1.79 µM (inactive) | 18.6 µM (inactive) | 5.83 µM (inactive) | 2 µM (inactive) | > 31.6 µM (inactive) | – | – |
| Cc1nn(C(=O)c2ccccc2O)c2c1C(c1ccc3ccccc3c1O)SC(=N)N2 (configuration not stated) | – | 3.53 µM (inactive) | 5.13 µM (inactive) | 3.66 µM (inactive) | 4.26 | 8.61 µM (inactive) | 8.75 µM (inactive) | – | 6.56 µM (inactive) | 2.69 µM (inactive) | 6.47 µM (inactive) | 3.8 µM (inactive) | 3.44 µM (inactive) | 4.61 µM (inactive) | 7.19 µM (inactive) | 6.58 µM (inactive) | 2.44 µM (inactive) | > 10 µM (inactive) | > 10 µM (inactive) | 4.53 µM (inactive) |
| CCOC(=O)/C(C(=O)Nc1cccc(Cl)c1)=C(/N)N1CCOCC1 | > 100 µM (inactive) | > 100 µM (inactive) | > 100 µM (inactive) | > 100 µM (inactive) | > 100 | > 100 µM (inactive) | > 100 µM (inactive) | > 100 µM (inactive) | > 100 µM (inactive) | > 100 µM (inactive) | > 100 µM (inactive) | > 100 µM (inactive) | > 100 µM (inactive) | > 100 µM (inactive) | > 100 µM (inactive) | > 100 µM (inactive) | > 100 µM (inactive) | > 100 µM (inactive) | > 100 µM (inactive) | – |
| CC(=O)Nc1ccc(NNc2cc(=O)n(C)c(=O)[nH]2)cc1 | – | 13.5 µM (inactive) | 10.2 µM (inactive) | 11.7 µM (inactive) | 8.55 | 17.7 µM (inactive) | 23.2 µM (inactive) | 16.7 µM (inactive) | – | 2.68 µM (inactive) | 2.71 µM (inactive) | 2.91 µM (inactive) | 11 µM (inactive) | 2.98 µM (inactive) | 14.1 µM (inactive) | 10.1 µM (inactive) | 5.57 µM (inactive) | 13.1 µM (inactive) | 12.4 µM (inactive) | 3.47 µM (inactive) |
| C=C(C)C1=CCC[C@]2(C1)N=C(OC)[C@@H](C(C)C)N=C2OC | 31.3 µM (inactive) | > 100 µM (inactive) | > 100 µM (inactive) | > 100 µM (inactive) | > 100 | > 100 µM (inactive) | > 100 µM (inactive) | > 100 µM (inactive) | – | > 100 µM (inactive) | > 100 µM (inactive) | > 100 µM (inactive) | 32.2 µM (inactive) | > 100 µM (inactive) | > 100 µM (inactive) | > 100 µM (inactive) | 92.7 µM (inactive) | > 100 µM (inactive) | > 100 µM (inactive) | – |
| CC(=O)Oc1ccc2cc(Oc3ccc(Cl)cc3)c(=O)oc2c1 | 22.3 µM (inactive) | 24.1 µM (inactive) | 58.2 µM (inactive) | 42.8 µM (inactive) | 28.8 | 60.4 µM (inactive) | > 100 µM (inactive) | – | 46.9 µM (inactive) | 19.2 µM (inactive) | 36.1 µM (inactive) | 38.8 µM (inactive) | 25.6 µM (inactive) | 40.8 µM (inactive) | > 100 µM (inactive) | 29.6 µM (inactive) | 32.7 µM (inactive) | 25.9 µM (inactive) | 25 µM (inactive) | 64.7 µM (inactive) |
| CCN(CC)c1ccc2cc(-c3csc(C)n3)c(=O)oc2c1 | – | 77.8 µM (inactive) | 34.6 µM (inactive) | 57.7 µM (inactive) | > 100 | 59.7 µM (inactive) | 54.7 µM (inactive) | – | 37.3 µM (inactive) | – | 39.2 µM (inactive) | 70.3 µM (inactive) | 0.719 µM (active) | > 100 µM (inactive) | > 100 µM (inactive) | > 100 µM (inactive) | > 100 µM (inactive) | 28.2 µM (inactive) | – | 62.2 µM (inactive) |
| Cc1cccnc1N/C=C1\C(=O)NC(=O)N(C)C1=O | 1.69 µM (inactive) | > 100 µM (inactive) | > 100 µM (inactive) | > 100 µM (inactive) | > 100 | > 100 µM (inactive) | > 100 µM (inactive) | – | – | > 100 µM (inactive) | > 100 µM (inactive) | > 100 µM (inactive) | > 100 µM (inactive) | > 100 µM (inactive) | > 100 µM (inactive) | > 100 µM (inactive) | > 100 µM (inactive) | > 100 µM (inactive) | 13 µM (inactive) | – |
| CN(C)CCNc1nc2ccccc2c2c1CCCC2 | 16.3 µM (inactive) | 15.1 µM (inactive) | 48.9 µM (inactive) | 17.3 µM (inactive) | 32 | 29.9 µM (inactive) | 14.5 µM (inactive) | 25.1 µM (inactive) | 8.65 µM (inactive) | 30.8 µM (inactive) | 16.4 µM (inactive) | 23.9 µM (inactive) | 16.1 µM (inactive) | 26.2 µM (inactive) | 30.4 µM (inactive) | 22.9 µM (inactive) | 14.8 µM (inactive) | 33.1 µM (inactive) | 16.3 µM (inactive) | – |
| Cc1cc(Cc2cc(C)c(NC(=O)C(=O)C3CCC4=C(SC5C=CC=CC5N4)C3=O)c(C(C)C)c2)cc(C(C)C)c1NC(=O)C(=O)C1CCC2=C(SC3C=CC=CC3N2)C1=O (configuration not stated) | 19.9 µM (inactive) | > 100 µM (inactive) | 33.7 µM (inactive) | 50.1 µM (inactive) | 34.9 | – | > 100 µM (inactive) | 35.5 µM (inactive) | 44 µM (inactive) | 35 µM (inactive) | > 100 µM (inactive) | 62.4 µM (inactive) | – | 38 µM (inactive) | > 100 µM (inactive) | 84.1 µM (inactive) | 62.5 µM (inactive) | 38.4 µM (inactive) | – | 60.8 µM (inactive) |
| CC(=O)Nc1ccc(NC(=O)c2c(Cl)c(Cl)c(Cl)c(Cl)c2-c2nc3ccccc3[nH]2)cc1 | 36.7 µM (inactive) | 40.1 µM (inactive) | 45.2 µM (inactive) | – | 85.1 | 54.2 µM (inactive) | – | – | 29.4 µM (inactive) | 48.1 µM (inactive) | 49.1 µM (inactive) | 39.2 µM (inactive) | 35.3 µM (inactive) | 48.5 µM (inactive) | 67.1 µM (inactive) | 35.4 µM (inactive) | 26.7 µM (inactive) | 43.1 µM (inactive) | 51.4 µM (inactive) | 27.2 µM (inactive) |
| CC(=O)Nc1ccc2c(c1)C(=O)c1cccc(F)c1-2 | 36.5 µM (inactive) | 97.5 µM (inactive) | 50.4 µM (inactive) | 38.6 µM (inactive) | 24.7 | > 100 µM (inactive) | 55.6 µM (inactive) | 48.2 µM (inactive) | 23.6 µM (inactive) | 68.2 µM (inactive) | 71.6 µM (inactive) | 36.6 µM (inactive) | – | 57.3 µM (inactive) | 80.9 µM (inactive) | 42.2 µM (inactive) | 4.33 µM (inactive) | 4.45 µM (inactive) | > 100 µM (inactive) | 19.9 µM (inactive) |
| [O-][n+]1onc(-c2ccccc2)c1CN1CCOCC1 | 26.4 µM (inactive) | > 100 µM (inactive) | 10.4 µM (inactive) | > 100 µM (inactive) | 72.9 | > 100 µM (inactive) | > 100 µM (inactive) | > 100 µM (inactive) | > 100 µM (inactive) | 93.1 µM (inactive) | > 100 µM (inactive) | > 100 µM (inactive) | > 100 µM (inactive) | > 100 µM (inactive) | > 100 µM (inactive) | > 100 µM (inactive) | > 100 µM (inactive) | > 100 µM (inactive) | > 100 µM (inactive) | – |
| COC(=O)[C@]1(c2cc3ccccc3[nH]2)CC2CN(C(=O)OCc3ccccc3)C1CC2=O (some centres not stated) | 20.6 µM (inactive) | 36.3 µM (inactive) | 28.1 µM (inactive) | 15.8 µM (inactive) | 27.5 | 59.7 µM (inactive) | 53.5 µM (inactive) | 29.3 µM (inactive) | 16.2 µM (inactive) | 28.8 µM (inactive) | 23.8 µM (inactive) | 26.6 µM (inactive) | 24.8 µM (inactive) | 29.6 µM (inactive) | 14.1 µM (inactive) | 17.4 µM (inactive) | 16.7 µM (inactive) | 29.3 µM (inactive) | 20.7 µM (inactive) | – |
| CC(C)(C)OC(=O)CC(NC(=O)OC(C)(C)C)C(=O)NC(Cc1ccccc1)C(N)=O (configuration not stated) (Boc-Asp(OtBu)-Phe-NH2; configuration not given here) | > 100 µM (inactive) | > 100 µM (inactive) | > 100 µM (inactive) | > 100 µM (inactive) | > 100 | > 100 µM (inactive) | > 100 µM (inactive) | > 100 µM (inactive) | > 100 µM (inactive) | > 100 µM (inactive) | > 100 µM (inactive) | > 100 µM (inactive) | > 100 µM (inactive) | > 100 µM (inactive) | > 100 µM (inactive) | > 100 µM (inactive) | > 100 µM (inactive) | > 100 µM (inactive) | > 100 µM (inactive) | – |
